# According to patent US6914045B2, “Glycopeptide antibiotics” (Wyeth Holdings Corporation, priority 2001, dated 2005):
# What was measured:
# Test in all cases: in vitro antibacterial evaluation, MIC by broth dilution
# Format in all cases: cell-based
# [1] = tested on: Escherichia coli; details: 18 hours at 35° C.
# [2] = tested on: Staphylococcus sp.; details: broth dilution, 18 hours at 35° C.
# Method: (§1) Methods for in vitro Antibacterial Evaluation (Table 1)
# (§2) The minimum inhibitory concentration (MIC), the lowest concentration of the antibiotic which inhibits growth of the test organism, is determined by the broth dilution method using Muller-Hinton II […] (Baltimore Biological Laboratories) following the recommendations of the National Committee for Clinical Laboratory Standards [Methods for dilution antimicrobial susceptibility tests for bacteria that grow aerobically, approved standard M7-A2, National Committee for Clinical Laboratory Standards, Villanova, Pa.].
# (§3) An inoculum level of 5×10^5 CFU/mL, and a range of antibiotic concentrations (64-0.06 μg/mL) is used. […] The test organisms include a spectrum of Gram-positive bacteria comprised of Staphylococcus sp., Streptococcus sp. and Enterococcus sp. These organisms include recent clinical isolates that are resistant to methicillin, penicillin and/or vancomycin.
# [3] = tested on: Enterococcus sp.; details: broth dilution, 18 hours at 35° C.
# Method: as §1, §2, §3
# [4] = tested on: Streptococcus sp.; details: broth dilution, 18 hours at 35° C.
# Method: as §1, §2, §3
structure (smiles),measurement,setting,value
CC(c1ccccc1)C1NC(=O)CNC(=O)C(CO)NC(=O)C(C(O)C2CNC(=N)N2C2OC(CO)C(O)C(O)C2O)NC(=O)C(C(O)C2CNC(=N)N2)NC(=O)C(Cc2ccc(OC3OC(CO)C(OC4OC5COC6(CC7CCC6(C)C7(C)C)OC5C(O)C4O)C(O)C3O)cc2)NC1=O (stereo not drawn) [Example 215],MIC Escherichia coli (ATCC 25922),[1],32 µg/mL
same,MIC Escherichia coli (GC 4559),[1],32 µg/mL
same,MIC Escherichia coli (GC 4560),[1],1 µg/mL
same,MIC Staphylococcus aureus (ATCC 29213),[2]; strain ATCC 29213,0.5 µg/mL
same,MIC Staphylococcus aureus (GC 1131),[2]; strain GC 1131,0.5 µg/mL
same,MIC Staphylococcus aureus (GC 3051),[2]; strain GC 3051,0.5 µg/mL
same,MIC Staphylococcus aureus (GC 3053),[2]; strain GC 3053,1 µg/mL
same,MIC Staphylococcus aureus (GC 4541),[2]; strain GC 4541,0.5 µg/mL
same,MIC Staphylococcus aureus (GC 4542),[2]; strain GC 4542,0.5 µg/mL
same,MIC Staphylococcus aureus-SMITH (GC 4543),[2]; strain GC 4543,<0.12 µg/mL
same,MIC Staphylococcus aureus (GC 4544),[2]; strain GC 4544,0.5 µg/mL
same,MIC Staphylococcus aureus (GC 4545),[2]; strain GC 4545,1 µg/mL
same,MIC Staphylococcus haemolyticus (GC 4546),[2]; strain GC 4546,0.5 µg/mL
same,MIC Coagulase Negative Staphylococcus (GC 4547),[2]; strain GC 4547,0.5 µg/mL
same,MIC Coagulase Negative Staphylococcus (GC 4548),[2]; strain GC 4548,0.5 µg/mL
same,MIC Coagulase Negative Staphylococcus (GC 4549),[2]; strain GC 4549,<0.12 µg/mL
same,MIC Coagulase Negative Staphylococcus (GC 4551),[2]; strain GC 4551,0.5 µg/mL
same,MIC Enterococcus avium (GC 4558),[3],0.5 µg/mL
same,MIC Enterococcus faecalis (ATCC 29212),[3],0.5 µg/mL
same,MIC Enterococcus faecalis (GC 2242),[3],1 µg/mL
same,MIC Enterococcus faecalis (GC 2691),[3],1 µg/mL
same,MIC Enterococcus faecalis (GC 3059),[3],1 µg/mL
same,MIC Enterococcus faecalis (GC 4552),[3],1 µg/mL
same,MIC Enterococcus faecalis (GC 4553),[3],0.5 µg/mL
same,MIC Enterococcus faecalis (GC 4554),[3],1 µg/mL
same,MIC Enterococcus faecalis (GC 6189),[3],1 µg/mL
same,MIC Enterococcus faecium (GC 2243),[3],0.5 µg/mL
same,MIC Enterococcus faecium (GC 4556),[3],1 µg/mL
same,MIC Enterococcus faecium (GC 4557),[3],0.5 µg/mL
same,MIC Enterococcus faecalis (ATCC 29212),"[3]; inoculum 5×10^5 CFU/mL, strain ATCC 29212",0.5 µg/mL
same,MIC Enterococcus faecalis (GC 2242),"[3]; inoculum 5×10^5 CFU/mL, strain GC 2242",1 µg/mL
same,MIC Enterococcus faecium (GC 2243),"[3]; inoculum 5×10^5 CFU/mL, strain GC 2243",0.5 µg/mL
same,MIC Enterococcus faecalis (GC 2691),"[3]; inoculum 5×10^5 CFU/mL, strain GC 2691",1 µg/mL
same,MIC Enterococcus faecalis (GC 3059),"[3]; inoculum 5×10^5 CFU/mL, strain GC 3059",1 µg/mL
same,MIC Enterococcus faecalis (GC 4552),"[3]; inoculum 5×10^5 CFU/mL, strain GC 4552",1 µg/mL
same,MIC Enterococcus faecalis (GC 4553),"[3]; inoculum 5×10^5 CFU/mL, strain GC 4553",0.5 µg/mL
same,MIC Enterococcus faecalis (GC 4554),"[3]; inoculum 5×10^5 CFU/mL, strain GC 4554",1 µg/mL
same,MIC Enterococcus faecium (GC 4556),"[3]; inoculum 5×10^5 CFU/mL, strain GC 4556",1 µg/mL
same,MIC Enterococcus faecium (GC 4557),"[3]; inoculum 5×10^5 CFU/mL, strain GC 4557",0.5 µg/mL
same,MIC Enterococcus avium (GC 4558),"[3]; inoculum 5×10^5 CFU/mL, strain GC 4558",0.5 µg/mL
same,MIC Enterococcus faecalis (GC 6189),"[3]; inoculum 5×10^5 CFU/mL, strain GC 6189",1 µg/mL
same,MIC Streptococcus agalactiae (GC 4564),[4],<0.12 µg/mL
same,MIC Streptococcus pneumoniae (ATCC 6301),[4],<0.12 µg/mL
same,MIC Streptococcus pneumoniae (GC 1894),[4],<0.12 µg/mL
same,MIC Streptococcus pneumoniae (GC 4565),[4],<0.12 µg/mL
same,MIC Streptococcus pyogenes (GC 4563),[4],<0.12 µg/mL
same,MIC Streptococcus pneumoniae (ATCC 6301),"[4]; inoculum 5×10^5 CFU/mL, strain ATCC 6301",<0.12 µg/mL
same,MIC Streptococcus pneumoniae (GC 1894),"[4]; inoculum 5×10^5 CFU/mL, strain GC 1894",<0.12 µg/mL
same,MIC Streptococcus pyogenes (GC 4563),"[4]; inoculum 5×10^5 CFU/mL, strain GC 4563",<0.12 µg/mL
same,MIC Streptococcus agalactiae (GC 4564),"[4]; inoculum 5×10^5 CFU/mL, strain GC 4564",<0.12 µg/mL
same,MIC Streptococcus pneumoniae (GC 4565),"[4]; inoculum 5×10^5 CFU/mL, strain GC 4565",<0.12 µg/mL
